# Laboratory results from patent publication US10508113B2, “Inhibitors of tyrosine kinase 2 mediated signaling” (AbbVie Inc., priority 2018, dated 2019).
# pEC50: −log10 of the molar value.
# How the values were obtained:
# Type in all cases: cell-based
# [1] = target: T1, Tyk2/Jak2 (Homo sapiens, UniProt P29597); experiment: Tyk2 (Tyk2/Jak2 PSTAT4 T-Blast) alpha screen assay: inhibition of IL-12 induced phosphorylation of STAT4 in T-blast cells; conditions: IL-12 induced pSTAT4, T-blast cells
# T1 construct: Cell Type: Frozen primary phytohemagglutinin (PHA) T-Blasts; endogenous in cells; host or cells: primary PHA T-blasts
# T1 sequence (P29597 whole entry, other chains not shown): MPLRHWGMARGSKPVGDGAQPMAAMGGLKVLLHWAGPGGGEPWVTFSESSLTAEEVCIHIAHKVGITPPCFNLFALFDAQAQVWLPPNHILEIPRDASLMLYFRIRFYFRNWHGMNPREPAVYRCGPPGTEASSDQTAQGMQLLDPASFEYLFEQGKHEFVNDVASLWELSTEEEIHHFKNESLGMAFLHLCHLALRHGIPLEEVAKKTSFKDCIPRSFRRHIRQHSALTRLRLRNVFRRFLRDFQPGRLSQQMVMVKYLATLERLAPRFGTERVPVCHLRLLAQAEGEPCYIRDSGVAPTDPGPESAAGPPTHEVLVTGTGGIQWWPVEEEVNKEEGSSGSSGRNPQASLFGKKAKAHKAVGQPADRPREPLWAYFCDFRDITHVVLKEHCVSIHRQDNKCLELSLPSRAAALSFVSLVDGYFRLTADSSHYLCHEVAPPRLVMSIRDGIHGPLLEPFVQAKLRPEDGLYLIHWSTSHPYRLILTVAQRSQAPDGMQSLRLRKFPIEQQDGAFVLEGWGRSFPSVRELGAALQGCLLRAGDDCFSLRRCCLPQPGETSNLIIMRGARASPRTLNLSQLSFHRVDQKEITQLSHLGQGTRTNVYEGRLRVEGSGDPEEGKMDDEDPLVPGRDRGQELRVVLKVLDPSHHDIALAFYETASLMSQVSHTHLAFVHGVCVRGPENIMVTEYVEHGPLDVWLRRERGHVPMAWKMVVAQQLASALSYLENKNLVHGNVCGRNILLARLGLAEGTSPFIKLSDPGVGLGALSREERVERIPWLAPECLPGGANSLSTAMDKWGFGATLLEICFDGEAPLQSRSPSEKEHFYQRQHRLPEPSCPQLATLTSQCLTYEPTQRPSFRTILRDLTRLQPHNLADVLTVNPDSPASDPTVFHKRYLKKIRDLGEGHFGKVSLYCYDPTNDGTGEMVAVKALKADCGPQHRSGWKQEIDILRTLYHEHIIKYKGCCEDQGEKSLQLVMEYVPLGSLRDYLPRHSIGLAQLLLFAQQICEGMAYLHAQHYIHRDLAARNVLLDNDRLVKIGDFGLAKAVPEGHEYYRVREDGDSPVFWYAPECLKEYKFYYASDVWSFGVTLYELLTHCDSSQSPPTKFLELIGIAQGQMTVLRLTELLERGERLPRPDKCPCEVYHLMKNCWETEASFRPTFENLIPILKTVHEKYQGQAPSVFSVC
# Experimental: 1. TYK2 (TYK2/JAK2 PSTAT4 T-BLAST) ALPHA SCREEN ASSAY
# IL-12 is known to transduce its signal through IL-12 receptor via Jak2 and/or Tyk2. For that reason, the activity against Tyk2/Jak2 was measured by determining the inhibition of IL-12 induced phosphorylation of STAT4 in T-blast cells. […] See, e.g., Sohn et al., J. Immunology (2013) 2205-2216.
# Cell Type: Frozen primary phytohemagglutinin (PHA) T-Blasts; Culture Medium: Roswell Park Memorial Institute (RPMI) 1640 Medium, 10% heat-inactivated fetal bovine serum (FBS), 1% penicillin/streptomycin (Pen-Strep), 10 mM hydroxyethyl piperazineethanesulfonic acid (HEPES), 10 ng/mL recombinant human interleukin-12 (rhIL-12); Assay Medium: Hank's Balanced Salt Solution (HBSS), no phenol red.
# i. Automated 11-point 1:3 dilution curve: 2.5 mM top concentration dispensed in column 1 of a Corning 96-well polypropylene plate. Dimethyl sulfoxide (DMSO) was added to column 12 for high and low controls. Compounds were serially diluted 1:3 by adding 20 uL stock to 40 μL DMSO across the plate via Hamilton Microlab Star instrument.
# ii. Media dilution of compounds: Serially diluted compounds were diluted 1:50 in assay medium by adding 4 μL compound to 196 μL assay medium in a Corning 96-well polypropylene plate (now 2% DMSO).
# iii. […]
# Primary T-Blasts from overnight culture were centrifuged, washed once in assay medium, and pelleted. T-Blasts were counted and resuspended at 12,500,000 cells/mL. […]
# Phosphorylated Signal Transducer and Activator of Transcription 4 (pSTAT4) was quantified using the PerkinElmer SureFire Ultra pSTAT4 (Tyrosine 693) Assay. […]
# Make master mix of Protein A donor beads using the following volumes per well: 5.88 μL Dilution Buffer and 0.12 μL […]. […] Read plate on Perkin Elmer Envision. […]
# Certain compounds listed in Table C were tested for Tyk2 activity following the aforementioned Tyk2 (Tyk2/Jak2 PSTAT4 T-Blast) alpha screen assay and Jak2 (PTATS UT7) alpha screen assay. […] Selectivity for Tyk2 over Jak1, and Tyk2 over Jak2, are calculated from the tabulated activity data.
# [2] = target: T2, Jak1 (Homo sapiens, UniProt P23458); experiment: Jak1 (PSTAT3 TF1) alpha screen assay: inhibition of IL-6 induced phosphorylation of STAT3 in TF1 cells; conditions: calculated from tabulated EC50 data (Jak1 / Tyk2)
# T2 construct: endogenous in cells; host or cells: TF1 cells
# T2 sequence (P23458 whole entry): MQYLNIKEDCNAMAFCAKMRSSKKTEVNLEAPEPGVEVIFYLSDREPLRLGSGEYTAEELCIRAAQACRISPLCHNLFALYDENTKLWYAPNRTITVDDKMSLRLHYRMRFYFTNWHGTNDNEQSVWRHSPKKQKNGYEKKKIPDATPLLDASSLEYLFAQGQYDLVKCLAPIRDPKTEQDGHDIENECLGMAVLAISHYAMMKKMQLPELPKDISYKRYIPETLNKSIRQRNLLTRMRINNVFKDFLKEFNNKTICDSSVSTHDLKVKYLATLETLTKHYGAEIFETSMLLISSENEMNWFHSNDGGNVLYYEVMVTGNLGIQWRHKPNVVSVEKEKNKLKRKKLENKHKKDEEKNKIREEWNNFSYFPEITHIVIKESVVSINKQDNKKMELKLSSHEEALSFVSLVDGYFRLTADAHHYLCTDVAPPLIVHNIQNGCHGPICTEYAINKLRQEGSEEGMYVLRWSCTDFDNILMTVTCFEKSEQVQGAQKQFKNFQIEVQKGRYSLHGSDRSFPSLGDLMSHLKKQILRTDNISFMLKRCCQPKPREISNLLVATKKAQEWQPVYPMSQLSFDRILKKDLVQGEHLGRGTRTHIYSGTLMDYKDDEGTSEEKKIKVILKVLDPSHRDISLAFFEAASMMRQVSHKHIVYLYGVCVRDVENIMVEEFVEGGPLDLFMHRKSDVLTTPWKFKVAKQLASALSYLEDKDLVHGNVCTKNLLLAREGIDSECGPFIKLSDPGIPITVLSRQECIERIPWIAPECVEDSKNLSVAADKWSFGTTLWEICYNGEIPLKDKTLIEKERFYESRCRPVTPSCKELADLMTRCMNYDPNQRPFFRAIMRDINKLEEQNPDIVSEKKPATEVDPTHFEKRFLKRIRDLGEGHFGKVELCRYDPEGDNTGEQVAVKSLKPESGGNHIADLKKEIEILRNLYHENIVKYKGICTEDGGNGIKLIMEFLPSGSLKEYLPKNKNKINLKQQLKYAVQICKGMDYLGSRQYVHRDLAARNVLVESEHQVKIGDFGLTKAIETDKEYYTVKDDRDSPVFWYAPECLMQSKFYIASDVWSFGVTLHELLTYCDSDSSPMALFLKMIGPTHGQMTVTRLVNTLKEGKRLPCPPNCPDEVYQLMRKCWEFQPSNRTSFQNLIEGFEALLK
# Summary of the method: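 IL-6-starved TF1 cells were preincubated 30 min at 37 °C with compound (top final 25 μM, 8-point 1:5 series), then stimulated with IL-6 (100 ng/mL final) for 30 min at 37 °C. Lysates were read for pSTAT3 (Tyr705) by AlphaScreen SureFire. EC50 from percent-activity dose-response curves.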
# [3] = target: T3, Jak2 (Homo sapiens, UniProt O60674); experiment: Jak2 (PSTATS UT7) alpha screen assay: inhibition of EPO induced phosphorylation of STAT5 in UT7 cells; conditions: calculated from tabulated EC50 data (Jak2 / Tyk2)
# T3 construct: Cell Type: UT7 cells engineered to express the erythropoietin (EPO) receptor; endogenous in cells; host or cells: UT7 cells engineered to express the EPO receptor
# T3 sequence (O60674 whole entry): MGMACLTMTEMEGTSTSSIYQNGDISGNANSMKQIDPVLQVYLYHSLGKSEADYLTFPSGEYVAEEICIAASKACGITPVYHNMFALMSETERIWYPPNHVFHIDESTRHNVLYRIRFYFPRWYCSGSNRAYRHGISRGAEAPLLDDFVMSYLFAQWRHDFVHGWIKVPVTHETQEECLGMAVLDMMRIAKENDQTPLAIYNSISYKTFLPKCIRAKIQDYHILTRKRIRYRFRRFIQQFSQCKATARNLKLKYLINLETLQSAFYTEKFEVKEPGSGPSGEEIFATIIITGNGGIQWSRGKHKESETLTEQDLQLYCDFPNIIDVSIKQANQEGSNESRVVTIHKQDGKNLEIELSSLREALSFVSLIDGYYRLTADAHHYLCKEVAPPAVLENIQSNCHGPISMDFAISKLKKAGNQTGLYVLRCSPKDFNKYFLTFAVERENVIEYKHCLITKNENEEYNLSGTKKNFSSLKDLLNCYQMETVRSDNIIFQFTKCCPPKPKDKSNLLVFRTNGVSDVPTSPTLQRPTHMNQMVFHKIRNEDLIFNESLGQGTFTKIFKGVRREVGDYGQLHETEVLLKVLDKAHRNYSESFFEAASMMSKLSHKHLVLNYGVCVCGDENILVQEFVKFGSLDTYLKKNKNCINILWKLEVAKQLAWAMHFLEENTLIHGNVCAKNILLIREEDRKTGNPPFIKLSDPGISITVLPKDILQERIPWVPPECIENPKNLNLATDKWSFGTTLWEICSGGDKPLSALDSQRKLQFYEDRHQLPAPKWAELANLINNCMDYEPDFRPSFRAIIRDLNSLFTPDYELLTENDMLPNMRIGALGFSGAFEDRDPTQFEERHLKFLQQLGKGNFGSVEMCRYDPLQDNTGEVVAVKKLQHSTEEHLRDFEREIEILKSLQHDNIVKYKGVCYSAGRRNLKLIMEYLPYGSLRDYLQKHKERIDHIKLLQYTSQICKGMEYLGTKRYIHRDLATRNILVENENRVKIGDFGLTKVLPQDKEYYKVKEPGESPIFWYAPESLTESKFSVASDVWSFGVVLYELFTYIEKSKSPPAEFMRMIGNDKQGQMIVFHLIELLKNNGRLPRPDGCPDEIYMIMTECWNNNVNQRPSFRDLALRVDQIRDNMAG
# Summary of the method: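 EPO-receptor-expressing UT7 cells, starved overnight of EPO, preincubated 30 min at 37 °C with compound (8-point 1:3, top 25 µM final), then stimulated with 1 nM EPO for 20 min. After lysis, pSTAT5 (Tyr694/699) measured by SureFire AlphaScreen; EC50 from dose-response of percent activity.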
smiles,measurement,setting,value
CC(=O)Nc1cc2c(-c3cccc([C@@]4(CO)CCOC4)n3)c[nH]c2cn1 [21-NH (R-isomer)],pEC50,[1],6.27
"COCCOc1cc(-c2cn(C)c3cnc(NC(C)=O)cc23)nc([C@]2(CO)CCOC2)c1 [Example 22.8, (S)-N-(3-(6-(3-(hydroxymethyl)tetrahydrofuran-3-yl)-4-(2-methoxyethoxy)pyridin-2-yl)-1-methyl-1H-pyrrolo[2,3-c]pyridin-5-yl)acetamide]",Tyk2 selectivity over Jak1,[2],103-fold
same,Tyk2 selectivity over Jak2,[3],>136-fold
"CO[C@H](C)COc1cc(-c2cn(C)c3cnc(NC(C)=O)cc23)nc([C@]2(OC)CCOC2)c1 [Example 22.10, N-(3-(4-((R)-2-methoxypropoxy)-6-((R)-3-methoxytetrahydrofuran-3-yl)pyridin-2-yl)-1-methyl-1H-pyrrolo[2,3-c]pyridin-5-yl)acetamide]",Tyk2 selectivity over Jak1,[2],>272-fold
same,Tyk2 selectivity over Jak2,[3],>272-fold
"COCc1cc(-c2cn(C)c3cnc(NC(=O)CO)cc23)nc([C@]2(OC)CCOC2)c1 [Example 24, (R)-2-hydroxy-N-(3-(4-(methoxymethyl)-6-(3-methoxytetrahydrofuran-3-yl)pyridin-2-yl)-1-methyl-1H-pyrrolo[2,3-c]pyridin-5-yl)acetamide]",Tyk2 selectivity over Jak1,[2],>1087-fold
same,Tyk2 selectivity over Jak2,[3],>272-fold
"COCCOc1cc(-c2cn(C)c3cnc(NC(C)=O)cc23)nc([C@]2(OC)CCOC2)c1 [Example 25, (R)-N-(3-(4-(2-methoxyethoxy)-6-(3-methoxytetrahydrofuran-3-yl)pyridin-2-yl)-1-methyl-1H-pyrrolo[2,3-c]pyridin-5-yl)acetamide]",Tyk2 selectivity over Jak1,[2],1960-fold
same,Tyk2 selectivity over Jak2,[3],>1000-fold
"CO[C@@]1(c2cc(C(F)F)cc(-c3cn(C)c4cnc(NC(=O)CO)cc34)n2)CCOC1 [Example 26, (R)-N-(3-(4-(difluoromethyl)-6-(3-methoxytetrahydrofuran-3-yl)pyridin-2-yl)-1-methyl-1H-pyrrolo[2,3-c]pyridin-5-yl)-2-hydroxyacetamide]",Tyk2 selectivity over Jak1,[2],>500-fold
same,Tyk2 selectivity over Jak2,[3],>500-fold
